Experimental data taken from ChEMBL document CHEMBL4732117, “Small Molecule Approaches for Targeting the Polycomb Repressive Complex 2 (PRC2) in Cancer” (J Med Chem, 2020).
pIC50, pKd, pKi: −log10 of the molar value. Where a SMILES comes first, the peptide text is derived from it. [ ]: non-standard residue; d: D form. Lys(Me3) = C[N+](C)(C)CCCC[C@H](N)C(=O)O

Experiments:
[1] = molecular target: T1, Histone-lysine N-methyltransferase EZH2 (Homo sapiens, UniProt Q15910); assay: Inhibition of EZH2 in PRC2 complex (unknown origin) expressed in Sf9 cells using histone H3 (21 to 44)-lys (biotin) and SAM as substrate incubated for 90 mins by radiometric scintillation proximity assay
CT26 = assay: Antitumor activity against mouse CT26 cells implanted in NOD/SCID mouse assessed as tumor growth inhibition at 30 mg/kg, PO relative to control; format: functional; conditions: read-out: TGI
Polycomb protein EED [2] = molecular target: T2, Polycomb protein EED (Homo sapiens, UniProt O75530); assay: Displacement of OG(488) labeled probe from GST-tagged EED (unknown origin) incubated for 1 hr by lanthaScreen TR-FRET method
[3] = Cmax in Swiss albino mouse at 150 mg/kg, ip measured after 0.08 to 24 hrs; format: ADME, organism-based; set-up: route intraperitoneal, time 0.08-24 hrs, dose 150 mg/kg; conditions: in vivo
[4] = Time at which plasma concentration stays above cellular IC50 for inhibition of EZH2 in Swiss albino mouse at 50 mg/kg, PO; format: organism-based; conditions: in vivo
[5] = Time at which plasma concentration stays above cellular IC50 for inhibition of EZH2 in Swiss albino mouse at 15 mg/kg, ip; format: organism-based; conditions: in vivo
[6] = molecular target: T1, Histone-lysine N-methyltransferase EZH2; assay: Inhibition of EZH2 in PRC2 complex (unknown origin) using biotinylated peptide as substrate in presence of S-adenosylmethionine
[7] = Time at which plasma concentration stays above cellular IC50 for inhibition of EZH2 in Swiss albino mouse at 50 to 150 mg/kg, ip; format: organism-based; conditions: in vivo, dose 50-150 mg/kg
[8] = molecular target: T1, Histone-lysine N-methyltransferase EZH2; assay: Inhibition of wild type EZH2 in human PRC2 complex using S-adenosylmethionine and biotinylated histone peptides as substrate
[9] = Drug concentration in nucleus of human G401 cells assessed per million cells at 10 uM incubated for 2 hrs by UPLC-MS analysis; format: ADME, subcellular; conditions: g-401, 2 h
[10] = Drug concentration in cytoplasm of human G401 cells assessed per million cells at 10 uM incubated for 2 hrs by UPLC-MS analysis; format: ADME, subcellular; conditions: g-401, 2 h
KARPAS-422 = assay: Antiproliferative activity against human Karpas422 cells after 14 days by celltiter-glo luminescent cell viability assay; format: functional; conditions: KARPAS-422, 336 h, time 14 day
Polycomb protein EED [11] = molecular target: T2, Polycomb protein EED; assay: Binding affinity to EED (unknown origin) by TR-FRET based binding assay
[12] = molecular target: von Hippel-Lindau disease tumor suppressor/Polycomb protein EED (Homo sapiens) (UniProt O75530+P40337); assay: Induction of VHL-mediated EED degradation in human HeLa cells at 5 uM incubated for 24 hrs by Western blot analysis relative to control; format: cell-based
[13] = Plasma concentration in mouse xenografted with human Karpas-422 cells at 40 mg/kg, po; format: ADME, organism-based; conditions: in vivo
Polycomb protein EED [14] = molecular target: T2, Polycomb protein EED; assay: Binding affinity to EED in PRC2 complex (unknown origin) using H3K27me0 (21 to 44 residue) peptide as substrate by LC-MS analysis
Polycomb protein EED [15] = molecular target: T2, Polycomb protein EED; assay: Displacement of UNC5114-biotin tracer ligand from N-terminal 6His-tagged EED (1 to 441 residues) (unknown origin) expressed in Escherichia coli Rosetta2 BL21(DE3)pLysS cells measured after 1 hr by TR-FRET analysis
Polycomb protein EED [16] = molecular target: T2, Polycomb protein EED; assay: Binding affinity to human N-terminal His6-tagged/thrombin cleavage site fused/ AVI-tagged EED (1 to 441 residues) expressed in Escherichia coli BL21(DE3) cells by surface plasmon resonance method
Polycomb protein EED [17] = molecular target: T2, Polycomb protein EED; assay: Displacement of 3-FAM from N-terminal 6His-tagged full length EED (unknown origin) expressed in Escherichia coli Rosetta2 BL21(DE3)pLysS incubated for 30 mins by fluorescence polarization assay
[18] = Plasma concentration in Swiss albino mouse at 50 mg/kg, ip measured up to 24 hrs by LC-MS/MS analysis; format: ADME, organism-based
[19] = Plasma concentration in SCID mouse xenografted with human G-401 cells at 125 mg/kg, po BID administered for 21 days and measured at 3 hrs post dose on day 21 by LC-MS/MS analysis; format: ADME, organism-based; conditions: time 21 day
[20] = molecular target: T3, Histone-lysine N-methyltransferase EZH1 (Homo sapiens, UniProt Q92800); assay: Inhibition of EZH1 in PRC2 complex (unknown origin) using biotinylated peptide as substrate in presence of S-adenosylmethionine
T3 sequence (Q92800 whole entry): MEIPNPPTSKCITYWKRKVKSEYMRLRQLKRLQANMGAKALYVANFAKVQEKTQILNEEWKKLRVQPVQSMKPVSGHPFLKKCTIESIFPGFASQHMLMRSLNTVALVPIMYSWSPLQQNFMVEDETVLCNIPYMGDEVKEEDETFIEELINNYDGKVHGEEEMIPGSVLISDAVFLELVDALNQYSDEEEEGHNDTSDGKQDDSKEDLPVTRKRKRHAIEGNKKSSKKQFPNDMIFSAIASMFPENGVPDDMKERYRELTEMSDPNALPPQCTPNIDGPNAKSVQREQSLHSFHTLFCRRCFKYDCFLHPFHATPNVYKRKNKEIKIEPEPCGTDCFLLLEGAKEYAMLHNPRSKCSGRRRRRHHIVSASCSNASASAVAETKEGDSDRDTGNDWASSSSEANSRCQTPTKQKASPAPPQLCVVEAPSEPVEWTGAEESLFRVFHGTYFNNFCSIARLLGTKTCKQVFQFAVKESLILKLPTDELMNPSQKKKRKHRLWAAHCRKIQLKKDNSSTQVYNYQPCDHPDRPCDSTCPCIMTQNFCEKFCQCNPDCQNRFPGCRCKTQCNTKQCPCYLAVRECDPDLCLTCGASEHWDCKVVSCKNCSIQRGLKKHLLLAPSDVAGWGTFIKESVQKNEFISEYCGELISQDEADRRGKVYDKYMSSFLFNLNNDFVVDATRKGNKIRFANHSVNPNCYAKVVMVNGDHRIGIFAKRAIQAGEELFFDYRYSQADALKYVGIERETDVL

T2 sequence (O75530 whole entry): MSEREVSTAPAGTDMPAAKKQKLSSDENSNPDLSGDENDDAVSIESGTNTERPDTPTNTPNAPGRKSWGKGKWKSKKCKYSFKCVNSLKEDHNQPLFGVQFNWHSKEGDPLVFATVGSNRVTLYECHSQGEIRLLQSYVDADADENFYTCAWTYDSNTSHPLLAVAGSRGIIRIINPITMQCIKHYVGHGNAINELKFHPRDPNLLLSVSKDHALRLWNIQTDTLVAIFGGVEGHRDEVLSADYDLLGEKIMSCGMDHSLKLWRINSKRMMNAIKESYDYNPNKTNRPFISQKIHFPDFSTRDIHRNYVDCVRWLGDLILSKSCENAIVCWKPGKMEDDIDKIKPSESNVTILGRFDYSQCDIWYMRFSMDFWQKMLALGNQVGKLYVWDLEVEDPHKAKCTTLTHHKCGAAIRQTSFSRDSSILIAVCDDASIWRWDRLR
T1 sequence (Q15910 whole entry): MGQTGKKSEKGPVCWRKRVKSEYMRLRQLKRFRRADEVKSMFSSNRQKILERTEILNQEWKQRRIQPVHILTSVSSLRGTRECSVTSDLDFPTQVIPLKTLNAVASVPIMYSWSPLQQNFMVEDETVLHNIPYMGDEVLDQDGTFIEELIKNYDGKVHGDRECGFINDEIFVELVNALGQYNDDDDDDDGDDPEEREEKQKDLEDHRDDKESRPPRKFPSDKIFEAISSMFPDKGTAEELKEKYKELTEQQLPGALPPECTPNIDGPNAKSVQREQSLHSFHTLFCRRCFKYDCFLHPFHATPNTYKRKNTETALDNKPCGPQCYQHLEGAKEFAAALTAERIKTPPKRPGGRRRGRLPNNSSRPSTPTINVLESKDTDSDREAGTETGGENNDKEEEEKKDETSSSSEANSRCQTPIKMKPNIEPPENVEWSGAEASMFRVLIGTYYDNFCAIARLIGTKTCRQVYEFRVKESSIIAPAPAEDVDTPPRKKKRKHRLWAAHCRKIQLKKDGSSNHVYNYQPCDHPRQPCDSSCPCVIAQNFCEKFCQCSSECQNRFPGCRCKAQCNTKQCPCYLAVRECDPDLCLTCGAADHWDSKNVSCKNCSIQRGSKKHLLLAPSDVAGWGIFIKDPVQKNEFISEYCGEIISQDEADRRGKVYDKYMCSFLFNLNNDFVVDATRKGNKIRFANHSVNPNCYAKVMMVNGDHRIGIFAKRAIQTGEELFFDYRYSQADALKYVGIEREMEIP
Sequence of von Hippel-Lindau disease tumor suppressor/Polycomb protein EED (Homo sapiens) (O75530 2-441 limits assumed): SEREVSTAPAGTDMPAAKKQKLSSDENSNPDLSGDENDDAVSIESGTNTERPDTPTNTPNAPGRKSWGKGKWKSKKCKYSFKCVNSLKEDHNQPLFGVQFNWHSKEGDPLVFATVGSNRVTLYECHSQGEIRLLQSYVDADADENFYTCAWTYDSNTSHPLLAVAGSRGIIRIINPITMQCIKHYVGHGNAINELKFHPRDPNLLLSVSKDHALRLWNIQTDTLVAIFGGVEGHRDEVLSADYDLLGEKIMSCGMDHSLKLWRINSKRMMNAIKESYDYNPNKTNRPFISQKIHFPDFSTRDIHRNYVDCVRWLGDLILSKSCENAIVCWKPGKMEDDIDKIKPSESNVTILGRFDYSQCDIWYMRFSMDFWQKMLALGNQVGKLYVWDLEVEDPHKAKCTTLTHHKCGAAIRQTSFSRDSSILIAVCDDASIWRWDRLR
Sequence of von Hippel-Lindau disease tumor suppressor/Polycomb protein EED (Homo sapiens) (P40337 whole entry partner): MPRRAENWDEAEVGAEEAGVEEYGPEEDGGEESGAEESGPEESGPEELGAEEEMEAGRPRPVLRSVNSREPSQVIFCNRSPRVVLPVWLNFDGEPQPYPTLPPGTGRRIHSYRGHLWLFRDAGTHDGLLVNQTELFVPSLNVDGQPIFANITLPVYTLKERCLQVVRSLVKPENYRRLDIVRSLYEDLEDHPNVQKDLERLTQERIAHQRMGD

CCCc1cc(C)[nH]c(=O)c1CNC(=O)c1cc(-c2ccc(N3CCN(C)CC3)nc2)nc2c1cnn2C(C)C
pIC50 [1]: 7.96

Cc1ncccc1-c1cnc(NCc2c(F)ccc3c2CCO3)n2cnnc12
inhibition in vivo at 30 mg/kg (CT26): 59%

CN(C)[C@H]1CN(Cc2ccccc2)C[C@@H]1c1ccc(N2CCN(S(C)(=O)=O)CC2)cc1
pKi (Polycomb protein EED [2]): 5.74

CCCc1cc(C)[nH]c(=O)c1CNC(=O)c1cc(-c2ccc(N3CCN(C(C)C)CC3)nc2)cc2c1cnn2C(C)C
Cmax [3]: 12 µM | Time [4]: 20 h | Time [5]: 12 h | pIC50 [6]: 8.70 | Time [7]: 24 h

Cc1cc(C)c(CNC(=O)c2cc(-c3ccc(CN4CCOCC4)cc3)cc3c2cnn3C(C)C)c(=O)[nH]1
pKi [8]: 7.10

CNC(=O)CCc1ccc(-c2cnc(NCc3c(F)ccc4c3CCO4)n3cnnc23)c(C)n1
Drug uptake [9]: 0.19 pmol | Drug uptake [10]: 0.34 pmol | GI50 (KARPAS-422): 14 nM

CN(C)[C@H]1CN(C2CCc3cccc(F)c32)C[C@@H]1c1cn(C)c2ccccc12 (stereo not given in full)
pKi (Polycomb protein EED [11]): 7.96

Cc1ncsc1-c1ccc(CNC(=O)[C@@H]2C[C@@H](O)CN2C(=O)[C@@H](NC(=O)CCCNC(=O)c2ccc(-c3cnc(NCc4ccco4)n4cnnc34)cc2)C(C)(C)C)cc1
Activity [12]: 80%

CS(=O)(=O)c1ccc(-c2cnc(NCc3ccco3)n3cnnc23)cc1
concentration [13]: > 30 µM | pIC50 (Polycomb protein EED [14]): 7.63 | pIC50 (Polycomb protein EED [15]): 7.35

Cc1nc(CCC(=O)NCCCCC(=O)N[C@H](C(=O)N2C[C@H](O)C[C@H]2C(=O)NCc2ccc(-c3scnc3C)cc2)C(C)(C)C)ccc1-c1cnc(NCc2c(F)ccc3c2CCO3)n2cnnc12
pKd (Polycomb protein EED [16]): > 9.00 | Drug uptake [9]: 0.79 pmol | Drug uptake [10]: 0.03 pmol | GI50 (KARPAS-422): 57 nM

Cc1cc(C)c(CNC(=O)c2cc(-c3ccc4c(c3)OCCO4)nc3c2cnn3C(C)C)c(=O)[nH]1
pKi [8]: 6.51

COC(=O)[C@H](C)NC(=O)[C@H](Cc1ccccc1)NC(=O)[C@H](CCCC[N+](C)(C)C)NC(=O)[C@H](CCCNC(=N)N)NC(=O)[C@@H](N)CCC(N)=O (H-QR[Lys(Me3)]FA-OMe)
pIC50 (Polycomb protein EED [17]): 4.83

Cc1cc(C)c(CNC(=O)c2cc(-c3ccc(N4CCN(CCNC(=O)CC56CC7CC(CC(C7)C5)C6)CC4)nc3)cc3c2cnn3C(C)C)c(=O)[nH]1
concentration at 24 h [18]: > 1 µM

Cc1cc(C)c(CNC(=O)c2cc(-c3ccc(CN4CCOCC4)cc3)cc3c2cnn3C2CCCC2)c(=O)[nH]1
concentration at 504 h [19]: 8 µM | pIC50 [20]: 7.35

Cc1nc(CCC(=O)NCCOc2ccc(OCC(=O)N[C@H](C(=O)N3C[C@H](O)C[C@H]3C(=O)NCc3ccc(-c4scnc4C)cc3)C(C)(C)C)cc2)ccc1-c1cnc(NCc2c(F)ccc3c2CCO3)n2cnnc12
pKd (Polycomb protein EED [16]): > 9.00 | Drug uptake [9]: 37.2 pmol | Drug uptake [10]: 4.69 pmol | GI50 (KARPAS-422): 45 nM
